Where “and” joins values, the source holds several entries; their conditions need not be identical. Equal values may be shown once. Calls of active or inactive are those of the source.
Key:
[1] = Dd2 parasite growth inhibition in erythrocytes – SYBR Green, dry powder samples, set 9, dose response (AID 1159568); type: functional, cell-based
[2] = IGROV1 cell killing – plate reader, dry powder samples, PAX8 inhibitor project, dose response (AID 743043); type: functional, cell-based; settings: IGROV-1
Paired box protein Pax-8 = Paired box protein Pax-8 (Homo sapiens, UniProt Q06710); assay: PAX8 transcriptional activity inhibition in RMG-I – RMG-I cells, luciferase, cherry-pick, dose response (AID 687027); type: functional, cell-based;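 note: luciferase reporter driven by Pax8 target thyroperoxidase promoter measured by SteadyGlo luminescence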
Paired box protein Pax-8, sequence (Q06710 whole entry): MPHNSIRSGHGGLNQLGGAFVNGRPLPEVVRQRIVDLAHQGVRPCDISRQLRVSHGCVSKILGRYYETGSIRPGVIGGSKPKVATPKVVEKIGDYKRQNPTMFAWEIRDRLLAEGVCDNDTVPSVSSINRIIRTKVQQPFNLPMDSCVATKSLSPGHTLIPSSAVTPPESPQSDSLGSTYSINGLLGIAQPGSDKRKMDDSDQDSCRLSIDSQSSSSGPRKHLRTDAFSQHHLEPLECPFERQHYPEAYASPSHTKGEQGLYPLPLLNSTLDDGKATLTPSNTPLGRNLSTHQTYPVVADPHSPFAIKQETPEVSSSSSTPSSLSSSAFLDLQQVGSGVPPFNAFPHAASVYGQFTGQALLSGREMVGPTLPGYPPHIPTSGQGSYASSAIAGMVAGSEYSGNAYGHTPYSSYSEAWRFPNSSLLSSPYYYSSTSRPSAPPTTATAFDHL

[3] = OVCAR8 cell viability loss – plate reader, dry powder samples, PAX8 project, dose response (AID 743197); type: functional, cell-based; settings: OVCAR-8
[4] = CMV-driven luciferase expression suppression in HEK293 – cell-based, luminescence, dry powder, counter-screen for Pax8 inhibitor project, dose response (AID 743020); type: functional
[5] = OVCAR-3 cell viability loss – plate reader, dry powder samples, PAX8 inhibitor project, dose response (AID 743044); type: functional, cell-based
[6] = viability loss in THP-1 monocytes – THP-1 cells, cytotoxicity control for Vif-APOBEC3G degradation inhibitor project, dose response (AID 1117359); type: functional; settings: THP-1
CHO = CHO cell viability loss, potency – luminescence, cytotoxicity control for TLR9-MyD88 binding inhibitor project, dose response (AID 588339); type: functional, cell-based, hamster; settings: Cricetulus griseus;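 note: CHO cells stably coexpressing TLR9 and MyD88 fusions from primary screen; compound exposure lasted 48 hours before viability readout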
[7] = viability loss in HeLa cells – cytotoxicity control for MgcRacGAP inhibitor project, dose response (AID 624300); type: functional
[8] = target: Glucose-6-phosphate 1-dehydrogenase (Homo sapiens, UniProt P11413); assay: inhibition of Homo sapiens G6PD, dose series – biochemical, fluorescence, selectivity assay for P. falciparum G6PD inhibitor project, dose response (AID 504792); type: functional
Glucose-6-phosphate 1-dehydrogenase, sequence (P11413 whole entry): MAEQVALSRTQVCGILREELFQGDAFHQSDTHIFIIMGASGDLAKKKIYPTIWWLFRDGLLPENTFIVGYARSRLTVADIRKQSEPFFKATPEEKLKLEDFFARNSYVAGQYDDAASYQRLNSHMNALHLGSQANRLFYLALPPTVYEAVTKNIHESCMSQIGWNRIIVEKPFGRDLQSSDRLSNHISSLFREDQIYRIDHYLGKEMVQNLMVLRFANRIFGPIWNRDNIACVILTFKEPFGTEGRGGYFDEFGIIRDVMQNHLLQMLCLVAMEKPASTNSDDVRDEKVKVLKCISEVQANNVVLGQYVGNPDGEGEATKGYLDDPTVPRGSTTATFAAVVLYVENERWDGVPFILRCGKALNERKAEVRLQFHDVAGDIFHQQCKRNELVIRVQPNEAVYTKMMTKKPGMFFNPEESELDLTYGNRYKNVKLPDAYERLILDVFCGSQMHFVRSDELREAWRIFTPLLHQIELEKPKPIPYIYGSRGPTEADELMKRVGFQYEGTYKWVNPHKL

[9] = target: Glutathione-S-transferase (Schistosoma japonicum, UniProt Q26513); assay: GST-antibody interaction or FRET quenching – biochemical, TR-FRET, artefact control for Vif-APOBEC3G degradation inhibitor project, dose response (AID 1117362); type: functional
[10] = target: T1, Rac GTPase-activating protein 1 (Homo sapiens, UniProt Q9H0H5); assay: blockers of MgcRacGAP-driven Rac1 GTP hydrolysis – biochemical, ADP Hunter fluorescence, primary and confirmatory, confirmation (AID 624330); type: functional
T1 sequence (Q9H0H5 whole entry): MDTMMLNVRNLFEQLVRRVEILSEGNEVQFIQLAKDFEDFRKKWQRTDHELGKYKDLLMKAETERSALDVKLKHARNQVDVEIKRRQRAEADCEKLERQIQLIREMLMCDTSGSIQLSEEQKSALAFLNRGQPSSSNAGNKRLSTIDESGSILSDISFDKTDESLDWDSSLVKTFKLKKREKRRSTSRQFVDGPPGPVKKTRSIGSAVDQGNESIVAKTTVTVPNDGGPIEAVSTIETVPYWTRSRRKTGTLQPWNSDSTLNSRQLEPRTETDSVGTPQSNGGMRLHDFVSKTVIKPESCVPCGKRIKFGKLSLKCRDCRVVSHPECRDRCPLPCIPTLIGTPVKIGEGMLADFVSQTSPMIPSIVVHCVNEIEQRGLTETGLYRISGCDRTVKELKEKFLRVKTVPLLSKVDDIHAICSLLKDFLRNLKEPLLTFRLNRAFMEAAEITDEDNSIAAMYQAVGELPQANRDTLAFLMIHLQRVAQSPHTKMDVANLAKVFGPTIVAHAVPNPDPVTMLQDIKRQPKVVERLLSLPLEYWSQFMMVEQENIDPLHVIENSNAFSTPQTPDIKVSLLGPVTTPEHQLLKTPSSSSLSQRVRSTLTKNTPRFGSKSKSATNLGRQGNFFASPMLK

Genome polyprotein = Genome polyprotein (dengue virus type 2, UniProt P29990); assay: flavivirus cap methylation enzyme inhibition – biochemical, confirmation dose response, primary screen (AID 588689); type: functional
[11] = target: T2, Heat shock protein HSP 90-alpha (Homo sapiens, UniProt P07900); type: functional, organism-based
Vero [12] = assay: viability of Vero cells under compound – cytotoxicity control for flavivirus capping enzyme inhibitors (AID 588742); type: functional; settings: Chlorocebus sabaeus
Beta Lactamase = Beta Lactamase (Pseudomonas aeruginosa, UniProt Q932Y6); assay: BLA reporter interference, concentration series – BLA reporter cells, FRET fluorescence, artefact control for TLR9-MyD88 binding inhibitor project, dose response (AID 588341); type: cell-based;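 note: cell based assay in CHO-K1 cells stably expressing beta-lactamase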
Beta Lactamase, sequence (Q932Y6 whole entry): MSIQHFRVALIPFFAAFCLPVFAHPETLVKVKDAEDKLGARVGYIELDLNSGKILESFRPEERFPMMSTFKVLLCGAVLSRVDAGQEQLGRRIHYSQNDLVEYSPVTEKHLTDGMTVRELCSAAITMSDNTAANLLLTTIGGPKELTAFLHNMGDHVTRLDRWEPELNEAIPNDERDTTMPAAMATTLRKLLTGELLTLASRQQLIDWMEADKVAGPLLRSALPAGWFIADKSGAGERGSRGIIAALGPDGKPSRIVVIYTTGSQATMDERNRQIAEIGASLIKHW

Nonstructural protein 1 = Nonstructural protein 1 (Influenza A virus, UniProt Q194T2); type: functional, Influenza A virus (A/California/07/2009(H1N1))
[13] = target: COUP transcription factor 2 (Homo sapiens, UniProt P24468); assay: Luminescence-based cell-based high throughput dose response assay to identify inhibitors of COUP-TFII (NR2F2).; type: functional;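 note: HEK293 cells transiently cotransfected with COUP-TFII expression vector and reporter; luciferase reporter luminescence driven by COUP-TFII from the pX2-168 reporter plasmid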
COUP transcription factor 2, sequence (P24468 whole entry): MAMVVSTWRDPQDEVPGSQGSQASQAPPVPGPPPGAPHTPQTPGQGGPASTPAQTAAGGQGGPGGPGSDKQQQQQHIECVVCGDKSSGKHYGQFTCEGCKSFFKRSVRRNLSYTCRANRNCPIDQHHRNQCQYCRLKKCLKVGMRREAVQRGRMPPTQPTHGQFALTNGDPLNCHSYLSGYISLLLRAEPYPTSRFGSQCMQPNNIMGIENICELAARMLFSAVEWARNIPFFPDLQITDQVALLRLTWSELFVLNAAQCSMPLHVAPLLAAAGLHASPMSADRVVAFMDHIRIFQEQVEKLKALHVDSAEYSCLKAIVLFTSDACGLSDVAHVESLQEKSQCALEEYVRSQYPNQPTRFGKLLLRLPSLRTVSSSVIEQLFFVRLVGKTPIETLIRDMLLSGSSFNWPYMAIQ

Saccharomyces cerevisiae = assay: S. cerevisiae Caspase-1/ASC signal blockers IC50, NALP1 inhibitor project selectivity test (AID 488863); type: functional, organism-based
[14] = target: NACHT, LRR and PYD domains-containing protein 1 (Homo sapiens, UniProt Q9C000); assay: NALP1 inhibitors in yeast, dose response, luminescent (AID 488860); type: functional
[15] = HIV-1 Vif–A3G interaction blockers – biochemical, TR-FRET, GST-Vif 1-94, biotin-A3G peptide, dose response retest, primary screen (AID 1117319); type: functional;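 note: TR-FRET signal of purified GST-Vif binding a biotinylated A3G peptide; inhibitors lower the FRET signal by blocking Vif and A3G binding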
[16] = T. cruzi growth inhibition in host cells, dose response, cell-based, plate reader, dry powder, set 2 (AID 652275); type: functional
[17] = mouse embryonic fibroblast toxicity – cell-based, plate reader, dry powder, set 2, cytotoxicity control, dose response (AID 652280); type: functional; settings: NIH3T3
[18] = target: RNA-editing ligase 1, mitochondrial (Trypanosoma brucei brucei, UniProt P86926); assay: inhibition of trypanosome RNA editing ligase – biochemical, fluorescence, Trypanosoma brucei, dose response (AID 1117295); type: functional
RNA-editing ligase 1, mitochondrial, sequence (P86926 whole entry): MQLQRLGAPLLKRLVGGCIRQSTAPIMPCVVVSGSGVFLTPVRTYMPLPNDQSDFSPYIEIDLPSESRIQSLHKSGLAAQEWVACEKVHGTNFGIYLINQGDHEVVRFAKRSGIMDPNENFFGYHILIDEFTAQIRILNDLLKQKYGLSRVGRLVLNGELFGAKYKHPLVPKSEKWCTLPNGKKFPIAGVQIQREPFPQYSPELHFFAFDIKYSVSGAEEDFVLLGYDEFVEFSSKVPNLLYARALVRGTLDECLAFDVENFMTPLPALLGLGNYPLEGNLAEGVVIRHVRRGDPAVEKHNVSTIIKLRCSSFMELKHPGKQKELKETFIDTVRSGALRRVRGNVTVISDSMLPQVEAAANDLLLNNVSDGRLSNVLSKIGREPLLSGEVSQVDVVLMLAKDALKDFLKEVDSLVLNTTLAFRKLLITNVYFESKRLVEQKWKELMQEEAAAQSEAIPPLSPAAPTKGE

[19] = reduced cellular PGC1a acetyl-lysine signal – cell-based, cherry-picked samples, dose response (AID 720514); type: functional;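 note: potency may reflect raised or lowered acetylation signal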
[20] = target: T2, Heat shock protein HSP 90-alpha; assay: Luminescence-based dose response biochemical high throughput screening assay for inhibitors of the Heat Shock Protein 90 (HSP90). [Related pubchem assays: 1831 (Summary AID.), 1846 (Confirmation screen.), 1789 (Primary screen.)]
Vero [21] = assay: cells; type: functional; settings: Chlorocebus sabaeus
[22] = Late stage assay provider results from the probe development effort to identify selective inhibitors of heat shock protein 90 (HSP90): Absorbance-based cell proliferation assay in MCF7 cells.; type: functional
[23] = Late stage assay provider results from the probe development effort to identify selective inhibitors of heat shock protein 90 (HSP90): Absorbance-based cell proliferation assay in SKBR3 cells.; type: functional; settings: SK-BR-3
Kallikrein-7 = Kallikrein-7 (Homo sapiens, UniProt P49862); assay: Fluorescence Intensity-based biochemical primary high throughput dose response assay to identify activators of kallikrein-7 (K7) zymogen.
Kallikrein-7, sequence (P49862 whole entry): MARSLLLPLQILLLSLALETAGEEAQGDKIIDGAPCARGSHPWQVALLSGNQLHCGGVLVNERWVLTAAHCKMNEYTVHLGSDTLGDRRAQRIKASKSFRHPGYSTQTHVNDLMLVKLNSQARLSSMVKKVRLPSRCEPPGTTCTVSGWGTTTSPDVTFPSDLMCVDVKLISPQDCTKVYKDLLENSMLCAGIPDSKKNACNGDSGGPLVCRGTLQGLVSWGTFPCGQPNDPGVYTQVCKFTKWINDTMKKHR

[24] = optical artefact potency, substrate without enzyme – biochemical, fluorescence intensity, triplicate, artefact control for kallikrein-7 zymogen activator project, dose response (AID 720493)
[25] = target: 1-phosphatidylinositol 4,5-bisphosphate phosphodiesterase gamma-1 (Homo sapiens, UniProt P19174); assay: Counterscreen for inhibitors of phospholipase C isozymes (PLC-B3): Fluorescence-based biochemical high throughput dose response assay to identify inhibitors of phospholipase C isozymes (PLC-gamma1).
1-phosphatidylinositol 4,5-bisphosphate phosphodiesterase gamma-1, sequence (P19174 whole entry): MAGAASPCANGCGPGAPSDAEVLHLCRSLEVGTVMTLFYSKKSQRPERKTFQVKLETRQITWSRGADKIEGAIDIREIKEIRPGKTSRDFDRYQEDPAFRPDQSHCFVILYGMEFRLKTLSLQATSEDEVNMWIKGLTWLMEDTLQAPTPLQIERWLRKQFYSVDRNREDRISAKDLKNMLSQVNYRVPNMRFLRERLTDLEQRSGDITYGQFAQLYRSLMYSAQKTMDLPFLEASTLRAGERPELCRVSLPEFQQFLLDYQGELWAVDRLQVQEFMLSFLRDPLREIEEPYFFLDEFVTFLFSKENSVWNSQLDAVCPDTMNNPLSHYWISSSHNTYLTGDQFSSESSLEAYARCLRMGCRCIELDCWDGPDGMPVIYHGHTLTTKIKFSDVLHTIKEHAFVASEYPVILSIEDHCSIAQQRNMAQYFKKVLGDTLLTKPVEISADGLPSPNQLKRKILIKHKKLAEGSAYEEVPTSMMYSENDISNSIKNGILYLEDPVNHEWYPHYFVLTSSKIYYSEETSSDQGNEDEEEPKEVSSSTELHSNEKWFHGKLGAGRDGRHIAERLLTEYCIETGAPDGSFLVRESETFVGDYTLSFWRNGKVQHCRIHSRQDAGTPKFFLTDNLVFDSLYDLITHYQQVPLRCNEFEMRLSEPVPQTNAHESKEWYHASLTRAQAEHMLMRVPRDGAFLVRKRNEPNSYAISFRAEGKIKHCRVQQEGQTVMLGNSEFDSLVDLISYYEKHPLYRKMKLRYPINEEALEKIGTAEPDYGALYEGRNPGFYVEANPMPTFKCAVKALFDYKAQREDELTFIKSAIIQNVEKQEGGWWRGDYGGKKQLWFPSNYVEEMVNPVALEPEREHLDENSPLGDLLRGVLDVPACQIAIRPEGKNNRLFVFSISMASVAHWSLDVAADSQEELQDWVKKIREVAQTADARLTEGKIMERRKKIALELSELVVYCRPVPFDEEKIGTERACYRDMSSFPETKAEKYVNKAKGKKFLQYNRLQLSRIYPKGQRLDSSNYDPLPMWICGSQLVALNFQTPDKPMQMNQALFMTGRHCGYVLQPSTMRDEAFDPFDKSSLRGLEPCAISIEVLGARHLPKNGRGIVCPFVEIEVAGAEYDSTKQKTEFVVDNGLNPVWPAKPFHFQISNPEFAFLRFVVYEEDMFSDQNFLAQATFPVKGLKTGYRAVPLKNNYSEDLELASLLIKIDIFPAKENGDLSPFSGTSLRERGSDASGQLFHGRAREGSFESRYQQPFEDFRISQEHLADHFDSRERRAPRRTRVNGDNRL

[26] = target: 1-phosphatidylinositol 4,5-bisphosphate phosphodiesterase beta-3 (Homo sapiens, UniProt Q01970); assay: Fluorescence-based biochemical high throughput dose response assay to identify inhibitors of phospholipase C isozymes (PLC-B3).
1-phosphatidylinositol 4,5-bisphosphate phosphodiesterase beta-3, sequence (Q01970 whole entry): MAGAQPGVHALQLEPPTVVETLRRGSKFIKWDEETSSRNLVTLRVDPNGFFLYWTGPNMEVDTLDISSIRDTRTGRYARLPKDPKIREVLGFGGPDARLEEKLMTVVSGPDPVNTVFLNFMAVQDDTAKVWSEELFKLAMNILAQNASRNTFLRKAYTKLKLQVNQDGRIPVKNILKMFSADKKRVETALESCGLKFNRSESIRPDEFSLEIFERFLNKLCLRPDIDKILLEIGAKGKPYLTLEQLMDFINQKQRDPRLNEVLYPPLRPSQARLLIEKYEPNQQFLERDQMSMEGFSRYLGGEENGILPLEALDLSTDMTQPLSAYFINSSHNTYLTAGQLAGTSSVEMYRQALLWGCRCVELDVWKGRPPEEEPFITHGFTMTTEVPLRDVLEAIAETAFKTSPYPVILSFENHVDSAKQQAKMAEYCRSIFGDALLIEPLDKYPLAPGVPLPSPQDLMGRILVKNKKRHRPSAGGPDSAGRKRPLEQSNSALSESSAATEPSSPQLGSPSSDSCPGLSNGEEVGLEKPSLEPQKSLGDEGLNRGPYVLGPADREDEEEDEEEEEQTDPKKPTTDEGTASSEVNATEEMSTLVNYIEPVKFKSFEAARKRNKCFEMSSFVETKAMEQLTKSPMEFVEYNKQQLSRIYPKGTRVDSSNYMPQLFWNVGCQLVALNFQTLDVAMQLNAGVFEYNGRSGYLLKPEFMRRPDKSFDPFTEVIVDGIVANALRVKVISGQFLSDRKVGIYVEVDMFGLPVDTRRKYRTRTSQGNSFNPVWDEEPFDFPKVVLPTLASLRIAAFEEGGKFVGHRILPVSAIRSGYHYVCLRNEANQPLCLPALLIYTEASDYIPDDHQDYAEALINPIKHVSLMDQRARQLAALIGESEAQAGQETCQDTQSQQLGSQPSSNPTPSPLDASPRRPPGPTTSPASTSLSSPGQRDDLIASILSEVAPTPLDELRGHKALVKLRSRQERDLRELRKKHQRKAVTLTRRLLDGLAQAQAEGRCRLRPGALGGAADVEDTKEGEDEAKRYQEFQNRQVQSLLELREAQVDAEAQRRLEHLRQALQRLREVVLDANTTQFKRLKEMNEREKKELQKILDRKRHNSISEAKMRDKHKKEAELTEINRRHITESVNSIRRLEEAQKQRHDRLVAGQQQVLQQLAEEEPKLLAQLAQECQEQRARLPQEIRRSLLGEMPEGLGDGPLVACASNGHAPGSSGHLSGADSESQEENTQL

CC(C)CC#Cc1ccc([C@@H]2[C@H]3CN(C(=O)Nc4ccccc4)CCCCN3[C@H]2CO)cc1
AC50 [1]: 2.67 µM (active)

O=C(C[C@@H]1CC[C@@H]2[C@H](COC[C@@H](O)CN2C(=O)Nc2ccc(C(F)(F)F)cc2)O1)NC1Cc2ccccc2C1
AC50 [2]: 56.8 µM (active)
AC50 (Paired box protein Pax-8): 5.62 µM (active)

C[C@@H]1CN([C@H](C)CO)C(=O)c2cc(NC(=O)Nc3ccc(F)cc3)ccc2O[C@@H](C)CCCCO[C@@H]1CN(C)Cc1ccc(C(F)(F)F)cc1
AC50 [3]: 39.5 µM (active)
AC50 [4]: 40.6 µM (active)
AC50 (Paired box protein Pax-8): 5.91 µM (active)
AC50 [5]: 12.4 µM (active)

CCN(CC)c1ccc(C(=C2C=CC(=[N+](CC)CC)C=C2)c2ccccc2)cc1
CC50 [6]: 0.1 µM (active)
IC50 (CHO): 0.181 µM (active)
CC50 [7]: 0.823 µM (active)
IC50 [8]: > 80 µM (inactive)
IC50 [9]: 25.3 µM (active)
IC50 [10]: 9.8 µM (active)
IC50 (Genome polyprotein): 24.9 µM (active)
AC50 [11]: 0.754 µM (active)
CC50 (Vero [12]): 0.27 µM (active)
IC50 (Beta Lactamase): 4.75 µM (active)
IC50 (Nonstructural protein 1): 10.4 µM (active)

Cc1cc(C)c(O)c(C(=O)CC2CC(=O)NC(=O)C2)c1
IC50 [13]: 9.88 µM (active)

Cc1sc(-c2ccncc2)nc1OC(=O)c1ccccc1
IC50 (Saccharomyces cerevisiae): 56.9 µM (active)
IC50 [14]: 23.1 µM (active)
IC50 [15]: > 100 µM (active)

CC(C)N1C[C@@H](C)[C@H](CN(C)Cc2ccc(Oc3ccccc3)cc2)Oc2c(C(=O)Nc3ccncc3)cccc2C1=O
AC50 [16]: 40.5 nM (active) and 71.6 nM (active)
AC50 [17]: 6.05 µM (active)

COC(=O)C1=C(C)N(Cc2cccc(C(F)(F)F)c2)C(NCc2ccc(C(F)(F)F)cc2)=NC1c1ccccc1C(F)(F)F (centres undefined)
IC50 [18]: > 96.6 µM (inactive)

O=C1CN(S(=O)(=O)Cc2ccccc2)C[C@@H]2[C@@H](c3ccc(C#Cc4cccc(F)c4)cc3)[C@@H](CO)N12
AC50 [19]: 21.6 µM (active)

Cc1cc(NC(=O)c2coc(=O)c(Br)c2)ccc1C(C)C
IC50 [20]: 0.685 µM (active)
CC50 (Vero [21]): > 25 µM (active)
IC50 [22]: 8.9 µM (active)
IC50 [23]: 18.8 µM (inactive)

Cc1ccc(C(=O)Nc2ccc(NC(=O)c3ccc(C)o3)cc2)o1
EC50 (Kallikrein-7): 12.7 µM (inactive)
EC50 [24]: > 7.72 µM (active)

O=S(=O)(c1ccccc1)c1cnn(-c2ccccc2)c1-c1ccc(Cl)cc1
IC50 [25]: > 122 µM (inactive)
IC50 [26]: > 122 µM (inactive)
